Reference: US7332512B2, “Halogenated nitrobutadienes for controlling animal pests” (priority 2001, dated 2008)

Columns and labels:
Assay type in all cases: in vivo
[1] = tested on: Myzus persicae; assay: Critical concentration test/root-systemic action (Example K), compound mixed with soil, broad beans; details: 4 ppm in soil
Method: (§1) Critical Concentration Test/Root-Systemic Action
(§2) To produce a suitable preparation of active compound, 1 part by weight of active compound is mixed with the stated amount of solvent, the stated amount of emulsifier is added and the concentrate is diluted with water to the desired concentration.
The preparation of active compound is mixed intimately with the soil. Here, the concentration of the active compound in the preparation is virtually immaterial, only the amount by weight of active compound per volume unit of soil, which is stated in ppm ([…]) matters. The treated soil is filled into pots of a volume of 250 ml, and pregerminated broad beans are planted into these pots. In this way, the active compound can be taken up from the soil by the plant roots and be transported into the leaves.
The root-systemic action of the active compound is derived from the kill rate. It is 100% if all test animals have been killed and 0% if the number of test insects still alive is exactly the same as in the untreated control.

[2] = tested on: Lucilia cuprina larvae; assay: Blowfly larvae test/development-inhibitory action (Example N); details: 48 h
Method: Blowfly Larvae Test/Development-Inhibitory Action
(§3) 20 mg of active compound are dissolved in 1 ml of dimethyl sulphoxide, more dilute concentrations are prepared by dilution with dist. H2O.
About 20 Lucilia cuprina larvae are introduced into a test tube which contains about 1 cm^3 of horse meat and 0.5 ml of the preparation of active compound to be tested. After 24 and 48 hours, the efficacy of the preparation of active compound is determined. The test tubes are transferred into a beaker whose bottom is covered with sand. After a further 2 days, the test tubes are removed and the pupae are counted.
The efficacy of the preparation of active compound is assessed by the number of flies that have hatched after 1.5 times the period of development of an untreated control. 100% means that no flies have hatched; 0% means that all flies have hatched normally.

[3] = tested on: green peach aphid (Myzus persicae); assay: Myzus test (Example A), infested broad bean seedlings dipped; details: 500 ppm active compound, 6 days
Method: To produce a suitable preparation of active compound, 1 part by weight of active compound is mixed with the stated amounts of solvent and emulsifier, and the concentrate is diluted with water to the desired concentration.
Broad bean seedlings (Vicia faba minor) which are infested by the green peach aphid (Myzus persicae) are dipped into a preparation of active compound of the desired concentration and placed into a plastic box.
(§4) After the desired period of time, the kill in % is determined. 100% means that all animals have been killed; 0% means that none of the animals have been killed.

[4] = tested on: Aphis gossypii; assay: Critical concentration test/root-systemic action (Example E), soil drench; details: 20 ppm in soil; 10 days; root-systemic; savoy cabbage
Method: as §1, §2
(§5) The preparation of active compound is poured onto the soil of the infected savoy cabbage plant. In this way, the active compound can be taken up from the soil by the roots of the plants and can be transported into the leaves. Here, the concentration of active compound in the preparation is virtually immaterial, only the amount by weight per volume unit of soil, which is stated in ppm ([…]), matters.
(§6) The root-systemic action of the active compound is derived from the kill rate. It is 100% if all test animals have been killed and 0% if the number of test insects alive is the same as that for the untreated control.

[5] = tested on: Myzus persicae; assay: Critical concentration test/root-systemic action (Example F), soil drench; details: 20 ppm in soil; 10 days; root-systemic; savoy cabbage
Method: as §1, §2, §5, §6

[6] = tested on: cotton aphid (Aphis gossypii); assay: Aphis gossypii test (Example D), infested cotton leaves dipped; details: 500 ppm active compound; 6 days
Method: (§7) To produce a suitable preparation of active compound, 1 part by weight of active compound is mixed with the stated amounts of solvent and emulsifier, and the concentrate is diluted with emulsifier-containing water to the desired concentration.
Cotton leaves (Gossypium hirsutum) which are heavily infested by the cotton aphid (Aphis gossypii) are treated by being dipped into the preparation of active compound of the desired concentration.
(§8) After the desired period of time, the kill in % is determined. 100% means that all aphids have been killed; 0% means that none of the aphids have been killed.

[7] = tested on: green peach aphid (Myzus persicae); assay: Myzus test (Example G), infested cabbage leaves dipped; details: 500 ppm active compound, 6 days
Method: as §7
Cabbage leaves (Brassica oleracea), which are heavily infested by the green peach aphid (Myzus persicae) are treated by being dipped into the preparation of active compound of the desired concentration.
as §8

[8] = tested on: larvae of the mustard beetle (Phaedon cochleariae); assay: Phaedon larvae test (Example H), dipped cabbage leaves; details: 500 ppm active compound; 6 days
Method: as §7
(§9) Cabbage leaves (Brassica oleracea) are treated by being dipped into the preparation of active compound of the desired concentration and are populated with larvae of the mustard beetle (Phaedon cochleariae) while the leaves are still moist.
(§10) After the desired period of time, the kill in % is determined. 100% means that all beetle larvae have been killed; 0% means that none of the beetle larvae have been killed.

[9] = tested on: eggs of the diamondback moth (Plutella xylostella); assay: Plutella test (Example C), synthetic feed; details: 150 ppm active compound; 7 days; kill of eggs and/or larvae
Method: To produce a suitable preparation of active compound, 1 part by weight of active compound is mixed with the stated amount of solvent and the concentrate is diluted with methanol to the desired concentrations.
The stated amount of the preparation of active compound of the desired concentration is pipetted onto a standardized amount of synthetic feed. After the methanol has evaporated, about 200-300 eggs of the diamondback moth (Plutella xylostella) are placed onto the feed.
After the desired period of time, the kill of the eggs and/or larvae in % is determined. 100% means that all animals have been killed; 0% means that none of the animals have been killed.

[10] = tested on: Adults of Ctenocephalides felis; assay: Test with cat fleas/oral uptake (Example L); details: orally, 28 h
Method: Test with Cat Fleas/Oral Uptake
To produce a suitable formulation, a suitable solution of active compound is prepared from 20 mg of active compound and 1 ml of DMSO. 15 μl of this formulation are added to 3 ml of citrated cattle blood and stirred.
10 unfed adult fleas (Ctenocephalides felis, strain “Georgi”) are placed into a chamber (Ø 3.2 cm) whose top and bottom are closed with gauze. A metal cylinder whose underside is covered with parafilm is placed onto the chamber. The cylinder contains the 3 ml of blood/active compound formulation which can be taken up by the fleas through the paraffin membrane. Whereas the blood is warmed to 37° C., the temperature in the area of the flea chambers is adjusted to 25° C. Controls are mixed with the same volume of DMSO, without addition of a compound. The determinations are carried out in triplicate.
After 28 h, the mortality in % (=dead fleas) is determined.
Compounds which effect at least 25% kill of the fleas within 28 h are judged to be effective.

[11] = tested on: larvae of the mustard beetle (Phaedon cochleariae); assay: Phaedon larvae test (Example B), dipped cabbage leaves; details: 100 ppm active compound; 6 days
Method: as §7, §9, §10

[12] = tested on: adult Musca domestica, Reichswald strain (OP, SP, carbamate-resistant); assay: Test with flies (Musca domestica) (Example M), treated filter paper; details: time of reading not given
Method: Test with Flies (Musca domestica)
as §3
2 ml of this active compound preparation are pipetted onto filter paper discs (Ø 9.5 cm) in Petri dishes of corresponding dimensions. After the filter discs have been dried, 25 test animals are transferred into the Petri dishes, which are then covered.
After 1, 3, 5, 24 and 48 hours, the activity of the active compound preparation is determined. 100% means that all flies have been killed; 0% means that none of the flies have been killed.

[13] = tested on: eggs, larvae and pupae of the white fly (Bemisia tabaci); assay: Bemisia test (Example I), infected cotton plants dipped; details: 500 ppm active compound; 6 days
Method: To produce a suitable preparation of active compound, 1 part by weight of active compound is mixed with the stated amounts of solvent and emulsifier, and the concentrate is diluted with water to the desired concentrations.
Cotton plants (Gossypium hirsutum) infected by eggs, larvae and pupae of the white fly (Bemisia tabaci) are dipped into a preparation of active compound of the desired concentration.
as §4

[14] = tested on: caterpillars of the armyworm (Spodoptera frugiperda); assay: Spodoptera frugiperda test (Example J), dipped cabbage leaves; details: 500 ppm active compound; 7 days; % only printed in method b344
Method: Spodoptera frugiperda Test
as §7
Cabbage leaves (Brassica oleracea) are treated by being dipped into the preparation of active compound of the desired concentration and are populated with caterpillars of the armyworm (Spodoptera frugiperda) while the leaves are still moist.
After the desired period of time, the kill in % is determined. 100% means that all caterpillars have been killed; 0% means that none of the caterpillars have been killed.

| Compound | % kill after weeks ([1]; after 2 weeks) | % kill after weeks ([1]; after 3 weeks) | % kill after weeks ([1]; after 4 weeks) | % action/kill ([2]; 20 ppm) | % action/kill ([2]; 100 ppm) | Kill rate in % after 6 d (days) [3] | Kill rate in % after 10 d (days) [4] | Kill rate in % after 10 d (days) [5] | Kill rate in % after 6 d (days) [7] | Kill rate in % after 6 d (days) [8] | % action/kill ([10]; 20 ppm in cattle blood) | % action/kill ([10]; 100 ppm in cattle blood) | Kill rate in % after 6 d (days) [13] | also measured |
| --- | --- | --- | --- | --- | --- | --- | --- | --- | --- | --- | --- | --- | --- | --- |
| O=[N+]([O-])/C(C(Cl)=C(Cl)Cl)=C1\NCCN1Cc1ccc(Cl)nc1 [Example I-1, 2-chloro-5-[2-(2,3,3-trichloro-1-nitroallylidene)imidazolidin-1-ylmethyl]pyridine] | 100% | 100% | 99% | 0% | 100% | 100% | 100% | 100% | – | – | – | – | – | % kill after weeks ([1]; after 5 weeks): 100% |
| O=[N+]([O-])/C(C(=C(Cl)Cl)N1CCOCC1)=C1\NCCN1Cc1ccc(Cl)nc1 [Example I-2, 2-chloro-5-[2-(2-morpholinyl-3,3-dichloro-1-nitro-allylidene)imidazolidin-1-ylmethyl]pyridine] | 100% | 100% | 99% | 0% | 100% | 100% | 100% | 100% | 100% | 100% | 80% | 80% | 100% | Kill rate in % after 6 d (days) [6]: 100%; Kill rate in % after 7 d (days) [9]: 100%; % action/kill ([10]; 0.8 ppm in cattle blood): 0%; % action/kill ([10]; 4 ppm in cattle blood): 0%; Kill rate in % after 6 d (days) [11]: 100%; % action/kill ([12]; 20 ppm): 0%; % action/kill ([12]; 100 ppm): 50% |
| Cc1ccc(SC(=C(Cl)Cl)C(=C2NCCN2Cc2ccc(Cl)nc2)[N+](=O)[O-])cc1 [Example I-3, 2-chloro-5-[2-(2-(p-tolylthio)-3,3-dichloro-1-nitroallylidene)imidazolidin-1-ylmethyl]pyridine] | – | – | – | – | – | – | – | – | – | – | 0% | 50% | – | – |
| O=[N+]([O-])/C(C(=C(Cl)Cl)N1CCCC1)=C1\NCCN1Cc1ccc(Cl)nc1 [Example I-10] | – | – | – | – | – | – | – | – | – | – | 40% | 100% | 100% | – |
| O=[N+]([O-])/C(C(=C(Cl)Cl)N1CCSCC1)=C1\NCCN1Cc1ccc(Cl)nc1 [Example I-11] | – | – | – | 0% | 100% | – | – | – | 100% | 100% | 0% | 70% | – | – |
| CN(C(=C(Cl)Cl)/C(=C1/NCCN1Cc1ccc(Cl)nc1)[N+](=O)[O-])C(C)(C)C [Example I-12] | – | – | – | 0% | 100% | – | – | – | – | – | 30% | 70% | – | Rate of activity after 7 d (days) [14]: 100% |
